Counter-ions that a name gives are not always drawn.
Tests used:
Assay type in all cases: cell-based
[1] = test system: cyclooxygenase; assay: inhibition of synthesis of cyclooxygenase products TxB2 and PGE2 (rat polymorphonuclear leukocytes); conditions: rat PMN; for IC50: read-out: IC50 (inhibition of CO, as PGE2); for % Inhibition of CO (as PGE2): 10 μM, negative = potentiation of PGE2 synthesis
Experimental: (§1) Peritoneal PMN are obtained from female Wistar rats (150-250 g) that received an i.p. injection of 6% glycogen (10 ml). After 24 hours, rats are killed by CO2 asphysiation and peritoneal cells are harvested by peritoneal lavage using Ca^++ and MG^++ free Hanks' balanced salt solution (HBSS). The peritoneal exudate is centrifuged at 400 g for 10 minutes. After centrifugation, the lavaged fluid is removed and the cell pellet is resuspended in HBSS containing Ca^++ and MG^++ and 10 mM L-cysteine at a concentration of 2×10^7 cells/ml. To 1 ml portions of cell suspension, test drugs or vehicle are added and incubated at 37° C. for 10 minutes. Following this preincubation, the calcium ionophore (10 μM), a23187, is added together with 0.5 μM [14 C] arachidonic acid and further incubated for 10 minutes. The reaction is stopped by the addition of ice cold water (3 ml) and acidifying to pH 3.5. Lipoxygenase products are then extracted twice into diethyl ether. The pooled ether extracts are evaporated to dryness under nitrogen and the residue is redissolved in a small volume of methanol and spotted on aluminum backed pre-coated thin layer chromatographic plates. The samples are then cochromatographed with authentic reference 5-HETE in the solvent system - hexane: ether: acetic acid (50:50:3). After chromatography, the areas associated with 5-HETE standard are identified by autoradiography, cut out and quantitated by liquid scintillation.
However, in order to determine cyclooxygenase activity, the samples are cochromatographed with authentic reference TxB2 and PGE2 in the solvent system ethyl acetate: formic acid (80:1) and the upper phase of ethyl acetate: isooctane: acetic acid: water (110:50:20:100). After chromatography, the areas associated with the TxB2 and PGE2 standards are identified by autoradiography, cut out and quantitated by liquid scintillation techniques.

[2] = molecular target: T1, 5-lipoxygenase (Rattus norvegicus, UniProt P12527); assay: inhibition of 5-HETE synthesis by rat glycogen elicited polymorphonuclear leukocytes; conditions: rat PMN; for inhibition at 10 µM: negative = potentiation of 5-HETE synthesis, read-out: % Inhibition of 5-LO (as 5-HETE); for IC50: read-out: IC50 (inhibition of 5-LO, as 5-HETE)
T1 construct: Peritoneal PMN are obtained from female Wistar rats (150-250 g); endogenous in cells; host or cells: rat glycogen-elicited peritoneal polymorphonuclear leukocytes, intact
T1 sequence (P12527 1-673): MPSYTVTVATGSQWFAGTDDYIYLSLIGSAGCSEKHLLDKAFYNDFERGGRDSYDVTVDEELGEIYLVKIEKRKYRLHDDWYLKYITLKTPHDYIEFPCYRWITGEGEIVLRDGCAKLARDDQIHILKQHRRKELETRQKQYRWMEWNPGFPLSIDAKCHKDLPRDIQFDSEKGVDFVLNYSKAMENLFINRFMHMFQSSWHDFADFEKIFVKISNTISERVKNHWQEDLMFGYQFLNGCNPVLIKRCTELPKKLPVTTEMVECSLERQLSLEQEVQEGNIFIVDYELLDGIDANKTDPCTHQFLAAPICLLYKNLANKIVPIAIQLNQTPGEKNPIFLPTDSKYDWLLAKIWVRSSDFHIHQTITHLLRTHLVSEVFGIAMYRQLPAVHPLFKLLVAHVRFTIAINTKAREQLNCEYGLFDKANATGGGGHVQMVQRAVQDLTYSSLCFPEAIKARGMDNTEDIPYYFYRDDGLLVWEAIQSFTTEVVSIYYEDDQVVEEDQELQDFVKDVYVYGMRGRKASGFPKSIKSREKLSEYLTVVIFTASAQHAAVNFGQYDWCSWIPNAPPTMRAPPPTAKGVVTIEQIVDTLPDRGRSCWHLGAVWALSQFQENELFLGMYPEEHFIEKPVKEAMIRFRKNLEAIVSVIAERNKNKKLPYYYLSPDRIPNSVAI
Experimental: The assay of this Example measures the ability of the compounds of the invention to inhibit the synthesis of 5-HETE by rat glycogen elicited polymorphonuclear leukocytes.
as §1

[3] = molecular target: T2, 5-lipoxygenase (Homo sapiens, UniProt P09917); assay: inhibition of 5-lipoxygenase in human whole blood (LTB4)
T2 construct: Blood is obtained in 50-100 ml quantities from male donors; endogenous in cells; host or cells: human whole blood (leukocytes) from male donors
T2 sequence (P09917 1-674): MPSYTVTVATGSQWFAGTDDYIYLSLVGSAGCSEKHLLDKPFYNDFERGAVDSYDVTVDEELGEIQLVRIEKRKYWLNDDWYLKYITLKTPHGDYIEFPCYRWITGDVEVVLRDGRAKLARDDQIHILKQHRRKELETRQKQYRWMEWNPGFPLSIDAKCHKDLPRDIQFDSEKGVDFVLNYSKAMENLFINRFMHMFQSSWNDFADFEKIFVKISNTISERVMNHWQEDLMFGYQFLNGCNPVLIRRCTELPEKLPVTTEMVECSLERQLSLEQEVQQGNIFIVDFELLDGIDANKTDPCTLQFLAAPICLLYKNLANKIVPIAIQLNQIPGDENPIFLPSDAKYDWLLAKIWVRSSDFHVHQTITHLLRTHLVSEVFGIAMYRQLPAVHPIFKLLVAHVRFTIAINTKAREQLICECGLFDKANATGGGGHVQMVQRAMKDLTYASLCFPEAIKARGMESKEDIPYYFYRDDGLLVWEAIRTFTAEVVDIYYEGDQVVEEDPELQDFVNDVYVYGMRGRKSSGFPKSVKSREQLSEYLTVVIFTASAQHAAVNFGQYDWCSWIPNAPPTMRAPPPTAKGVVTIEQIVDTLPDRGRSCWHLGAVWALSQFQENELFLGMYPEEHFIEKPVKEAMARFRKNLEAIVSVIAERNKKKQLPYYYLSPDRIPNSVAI
Experimental: The assay of this Example measures the ability of the compounds tested to inhibit 5-lipxygenase in human whole blood.
Blood is obtained in 50-100 ml quantities from male donors. White blood cell counts and differentials are made. Two ml of blood are placed in a 15 ml polypropylene test tube. Compounds are solubilized in dimethylsulfoxide and diluted 1:10 in 10% bovine serum albumin in phosphate buffered saline, pH 7.4 resulting in a final dimethylsulfoxide concentration of 0.1% in the blood. Then, compounds are added to the blood in a shaking water bath at 37° C. for 10 minutes prior to the addition of 30 μM calcium ionophore (A23187; Sigma). After ionophore administration, whole blood samples are mixed and incubated for 20 minutes at 37° C. in a shaking water bath. Incubation is terminated by placing samples in an ice bath and immediately adding ethylene glycol-bis-(β-aminoethyl ether)-N,N,N',N'-tetraacetic acid (10 mM). Samples are mixed and centrifuged at 1200×g for 15 minutes at 4° C. Preparation of samples for evaluation by RIA or ELISA is carried out by the following protocol. Plasma is removed from sample tubes, placed in 15 ml polypropylene test tubes containing 8 ml methanol, and then vortexed to precipitate protein. Samples are stored at -70° C. overnight. The next day, samples are centrifuged at 200×g for 15 minutes at 4° C. to pellet the precipitate. Samples are dried in a Savant speed vac concentrator, reconstituted to original volume with ice cold RIA or ELISA buffer, and stored at -70° C. until assayed. The assay for eicosanoids (LTB4, TxB2, and PGE2) is performed as described by the manufacturer of the [^3 H]-RIA kit or ELISA kit (LTB4 -Amersham, TxB2 and PGE2 - Caymen Chemical).
The total eicosanoid level in 2 ml of blood is calculated and reported as ng/10^6 neutrophils. Significance is determined by a one-way analysis of variance with least significant difference (LSD) comparisons to control (p≤0.05) and IC50 's (μM) are determined by regression analysis (Finney, 1978). Drug effects are expressed as percent change form control values.
Compounds tested in vitro are solubilized in dimethylsulfoxide and diluted 1:10 in 10% bovine serum albumin in phosphate buffer saline resulting in a final dimethylsulfoxide concentration of 0.1% in the blood.

Row | SMILES | inhibition at 10 µM [2] [%] | % Inhibition of CO (as PGE2) [1] [%] | inhibition at 25 µM ([3]; 25 μM, human whole blood) [%] | also measured
1 | O=C(O)Cc1ccc2cc(OCc3ccc4ccccc4n3)ccc2c1 [Example 21, 6-(2-Ouinolinylmethoxy)-2-naphthaleneacetic Acid] | 95 |  |  | IC50 [1]: > 250 µM
2 | CC(C(=O)O)c1ccc2cc(OCc3ccc4ccccc4c3)ccc2c1 (stereo not drawn) [Example 6, α-Methyl-6-(2-naphthalenylmethoxy)-2-naphthaleneacetic acid] | 100 | -15 |  | 
3 | CC(C(=O)O)c1ccc2c(Br)c(OCc3ccc4ccccc4n3)ccc2c1 (stereo not drawn) [Example 19, α-Methyl-5-bromo-6-(2-quinolinylmethoxy)-2-naphthaleneacetic acid] | 82 | -21 |  | 
4 | C[C@H](C=O)c1ccc2cc(OCc3ccc4ccccc4n3)ccc2c1 [Example 27, (S)-α-methyl-6-(2-quinolinylmethoxy)-2-naphthaleneacetaldehyde] | 100 | -62 |  | 
5 | CC(C(=O)O)c1ccc2cc(OCc3nc4ccccc4s3)ccc2c1 (stereo not drawn) [Example 5, α-Methyl-6-(2-benzothiazolylmethoxy)-2-naphthaleneacetic acid] | 90 | -35 |  | 
6 | CC(C)(C(=O)O)c1ccc2cc(OCc3nc4ccccc4s3)ccc2c1 [Example 34, α,α-Dimethyl-6-(2-benzothiazolylmethoxy)-2-naphthaleneacetic acid] |  |  | 13 | 
7 | CC(c1cc2ccccc2s1)N(O)C(N)=O (centres unmarked) [Example A-64077, reference compound] |  |  |  | inhibition at 5 µM ([3]; read-out: % Inhibition of LTB4): 72%
8 | CC(C)c1ccc2c(c1)c(SC(C)(C)C)c(CC(C)(C)C(=O)O)n2Cc1ccc(Cl)cc1 [L-663,536, reference compound] |  |  |  | inhibition at 3 µM ([3]; 3 μM, human whole blood): 96%
9 | CCCCCOc1ccc2cc(C(C)C(=O)O)ccc2c1 (stereo not drawn) [Example 12, α-Methyl-6-(pentyloxy)-2-naphthaleneacetic acid] | 48 | -13 |  | 
10 | CC(C(=O)O)c1ccc2cc(OCc3ccc4ccc(Cl)cc4n3)ccc2c1 (stereo not drawn) [Example 18, α-Methyl-6-[(7-chloro-2-quinolinyl)-methoxy]-2-naphthaleneacetic acid] |  |  |  | IC50 [1]: > 50 µM; IC50 [2]: 11.4 µM
11 | C[C@H](C(=O)O)c1ccc2cc(OCc3csc(-c4ccccc4)n3)ccc2c1 [Example 35, S-(+)-α-Methyl-6-[(2-phenyl-4-thiazolyl)-methoxy]-2-naphthaleneaceticacid] |  |  | 28 | 
12 | CC(C)=CCOc1ccc2cc(C(C)C(=O)O)ccc2c1 (stereo not drawn) [Example 14, α-Methyl-6-(3-methyl-2-butenoxy)-2-naphthaleneacetic acid] | 81 | -15 |  | 
13 | CC(C)(C(=O)O)c1ccc2cc(OCc3ccc4ccccc4n3)ccc2c1 [Example 22, α,α-Dimethyl-6-(2-quinolinylmethoxy)-2-naphthaleneacetic acid] | 87 | -28 |  | 
14 | COC(=O)C(C)c1ccc2cc(OCc3ccc4ccccc4n3)ccc2c1 (stereo not drawn) [Example 28, α-Methyl-6-(2-quinolinylmethoxy)-2-naphthaleneacetic acid methyl ester] |  |  |  | IC50 [1]: > 10 µM; IC50 [2]: 0.43 µM
15 | C[C@H](C(=O)O)c1ccc2cc(OCc3nc4ccccc4o3)ccc2c1 [Example 46, S-(+)-α-methyl-6-(2-benzoxazolylmethoxy)-2-naphthaleneacetic acid] |  |  | 22 | 
16 | C[C@H](C(=O)O)c1ccc2cc(OCc3nc4ccccc4n3C)ccc2c1 [Example 43, S-(α)α-Methyl-6-[(1-methyl-1H-benzimidazol-2-yl)-methoxy]-2-naphthaleneacetic acid] |  |  | 12 | 
17 | CC(C)(NC(=O)NO)c1ccc2cc(OCc3nc4ccccc4s3)ccc2c1 [Example 37, N-[1-[6-(2-Benzothiazolylmethoxy)-2-naphthalenyl]-1-methyethyl]-N'-hydroxyurea] |  |  | 43 | IC50 ([3]; human whole blood): 50.8 µM
18 | C[C@H](C(=O)O)c1ccc2cc(OCc3nc4ccccc4s3)ccc2c1 [Example 33, S-(+)-α-Methyl-6-(2-benzothiazolylmethoxy)-2-naphthaleneacetic acid] |  |  | 54 | 
19 | C[C@H](C(=O)O)c1ccc2cc(OCc3ccccn3)ccc2c1 [Example 42, S-(+)-α-Methyl-6-(2-pyridinylmethoxy)-2-naphthaleneacetic acid one tenth hydrate] |  |  | 11 | 
20 | C[C@H](C(=O)N(C)O)c1ccc2cc(OCc3nc4ccccc4s3)ccc2c1 [Example 41A, S-(+)-N-Hydroxy-α,N-dimethyl-6-(2-benzothiazolylmethoxy)-2-naphthaleneacetamide sodium salt hydrate] |  |  |  | % Inhibition of LTB4 ([3]; 25 μM, human whole blood, sodium salt hydrate): 89%; IC50 ([3]; human whole blood, sodium salt hydrate): 12.2 µM

From patent publication US5208344A, “Naphthalenepropionic acid derivatives as anti-inflammatory/antiallergic agents” (American Home Products Corporation, priority 1991, dated 1993)
